Data: publication doi:10.1101/2024.08.25.609621 (bioRxiv, 2024)
Where “and” joins values, the source holds several entries; their conditions need not be identical. Equal values may be shown once. Entries after “also recorded” stand apart in the source; their conditions may differ. Read-outs that look alike come from different tables or passages of the source.

Columns and labels:
[1] = biological target: SARS-CoV-2 NSP3 macrodomain (Mac1), P43 crystal form (Severe acute respiratory syndrome coronavirus 2, UniProt P0DTD1); assay type: binding; settings: for 1-BDC: PanDDA background density correction; for Total number of conformations: ligand conformations modeled in Mac1 crystal structure; for X-ray crystallography: Binding site: site where the ligand is bound in the X-ray crystal structure; for X-ray crystal structure: X-ray crystal structure determined (TRUE); for Binding site: site of ligand in X-ray crystal structure; for Hit (PanDDA run, overall) / Hit (PanDDA run, DMSO background map) / 1-BDC (PanDDA run, DMSO background map): crystal soak 10 mM
[2] = biological target: SARS-CoV-2 NSP3 macrodomain (Mac1) (Severe acute respiratory syndrome coronavirus 2, UniProt P0DTD1); assay: biochemical; assay type: binding; settings: for SARS CoV-2 macrodomain HTRF assay: Hillslope: dose-response fit
[3] = crystal soak, soak concentration 10 mM
[4] = crystal soak, soak concentration 10 mM, TRUE = ligand hit
[5] = occupancy estimate from PanDDA 1-BDC
[6] = Single dose, concentration 200 μM, read-out: SARS CoV-2 macrodomain HTRF assay: Average % competition
[7] = preliminary screen, compound at 200 μM, mean of 3-4 technical replicates, read-out: % competition in HTRF assay
[8] = SARS CoV-2 macrodomain HTRF assay, dose-response
[9] = occupancy estimate from PanDDA BDC
[10] = crystal soak concentration 10 mM, event 1
[11] = crystal soak concentration 10 mM, P43 crystals
[12] = crystal soak concentration 10 mM

Compound	1-BDC [1]	Pandda run, overall: Modeled [1, 3]	Pandda run, overall: Hit [1, 4]	Total number of conformations [1]	2*(1-BDC) (%) [1, 5]	X-ray crystallography: Binding site [1]	PanDDA run, DMSO background map: 1-BDC ([1]; soak concentration 10 mM)	PanDDA run, DMSO background map: Hit ([1]; soak concentration 10 mM)	Hill slope ([2]; HTRF dose-response fit, Mac1)	inhibition at 200 µM [2, 6]	SARS CoV-2 macrodomain HTRF assay: Hillslope [2]	inhibition at 200 µM [2, 7]	Occupancy difference (refined_occupancy - 2*(1-BDC)) [1]	Refined ligand occupancy (%) [1]	2*(1-BDC) (%) [1, 9]	PanDDA run, DMSO background map: 1-BDC [1, 10]	Pandda run, overall: Hit [1, 11]	Pandda run, overall: Modeled [1, 11]	Pandda run, overall: Modeling comment [1, 11]	PanDDA run, DMSO background map: Hit [1, 12]	further results
CC1(C)C[C@@H](CO)N(c2ncnc3[nH]ccc23)C1.O=C(O)C(F)(F)F [AVI-3704]	0.33	TRUE	TRUE	1	66%	Adenosine	0.33	TRUE	1.1	90%	1.1	90%									
OCC1CC2(CCCC2)CN1c1ncnc2[nH]ccc12 (stereo not drawn) [AVI-3708]	0.32	TRUE	TRUE	1	64%	Adenosine	0.32	TRUE	1.1	90%	1.1	90%									
OCC1C2CCC(C2)N1c1ncnc2[nH]ccc12 (stereo not drawn) [AVI-3713]	0.29	TRUE	TRUE	1	58%	Adenosine	0.29	TRUE	1.1	92%	1.1	92%									
OC[C@@H]1C[C@@H]2CCC[C@@H]2N1c1ncnc2[nH]ccc12 [AVI-3720]	0.29	TRUE	TRUE	1	58%	Adenosine	0.29	TRUE	1.2	92%	1.2	92%									Phe132 loop open state ([1]; TRUE = open state of Phe132 loop modeled): TRUE
O=C(O)C(F)(F)F.OC1([C@H]2CCCN2c2ncnc3[nH]ccc23)Cc2ccccc2C1 [AVI-3731]	0.2	TRUE	TRUE	1	40%	Adenosine	0.2	TRUE	1.1	100%	1.1	100%									
OCCC(CO)Nc1ncnc2[nH]ccc12 (stereo not drawn) [AVI-3734]	0.25	TRUE	TRUE	1	50%		0.25	TRUE	1.2			86%									X-ray crystal structure [1]: TRUE; Binding site [1]: Adenosine; Hill slope [2, 8]: 1.2; inhibition at 200 µM ([2]; Single dose, concentration 200 μM, read-out: Average % competition): 86%
CC(O)C1CCCN1c1ncnc2[nH]ccc12 (stereo not drawn) [AVI-4062]	0.26			1		Adenosine			1.1		1.1		18	70%	52%						Hit (PanDDA run, overall) ([1]; P43 crystals): TRUE; Hit (PanDDA run, DMSO background map) [1]: TRUE; 1-BDC (PanDDA run, DMSO background map) ([1]; event 1): 0.26 and 0.29
O=C(O)C(F)(F)F.OC[C@H](Cc1ccc(O)cc1)Nc1ncnc2[nH]ccc12 [AVI-4066]	0.2			1					1.1				10	50%	40%						X-ray crystal structure [1]: TRUE; Hit (PanDDA run, overall) ([1]; P43 crystals): TRUE; Hit (PanDDA run, DMSO background map) [1]: TRUE; 1-BDC (PanDDA run, DMSO background map) ([1]; event 1): 0.2 and 0.37 and 0.38; Refined TFA occupancy (%) ([1]; occupancy of TFA in the dataset of the named ligand): 20%; Binding site [1]: Adenosine; Hill slope [2, 8]: 1.1
CC(C)(O)C1N(c2ncnc3[nH]ccc23)CCC1(C)C (stereo not drawn) [AVI-4126]	0.16			2		Adenosine			1.3		1.3		8	40%	32%	0.17 and 0.16	TRUE	TRUE	Duplicate, not modeled	TRUE	Phe132 loop open state [1]: TRUE; PanDDA run, DMSO background map: Modeled [1, 12]: TRUE
CC(C)(O)C1C2CCCCC2CN1c1ncnc2[nH]ccc12 (stereo not drawn) [AVI-4127]	0.25			2		Adenosine			1.3		1.3		10	60%	50%	0.23 and 0.25	TRUE	TRUE	Duplicate, not modeled	TRUE	Phe132 loop open state [1]: TRUE; PanDDA run, DMSO background map: Modeled [1, 12]: TRUE
CC(C)(O)C1C2CCC2CN1c1ncnc2[nH]ccc12 (stereo not drawn) [AVI-4128]	0.2			1		Adenosine			1.2		1.2		20	60%	40%	0.27 and 0.2	TRUE	TRUE	Duplicate, not modeled; also recorded: Weak density for open conformation	TRUE	Comment ([1]; comment on ligand modeling / Phe132 loop density): Weak density for open conformation; PanDDA run, DMSO background map: Modeled [1, 12]: TRUE
Cc1c[nH]c2ncnc(NCC3(O)CCOCC3)c12 [AVI-4194, 4-(((5-methyl-7H-pyrrolo[2,3-d]pyrimidin-4-yl)amino)methyl)tetrahydro-2H-pyran-4-ol]	0.09			1		Adenosine			1.3		1.3		0	18%	18%	0.13 and 0.09	TRUE	TRUE	Duplicate, not modeled	TRUE	PanDDA run, DMSO background map: Modeled [1, 12]: TRUE
Cc1c[nH]c2ncnc(NCC3(O)CCSCC3)c12 [AVI-4195, 4-(((5-methyl-7H-pyrrolo[2,3-d]pyrimidin-4-yl)amino)methyl)tetrahydro-2H-thiopyran-4-ol]	0.14			1		Adenosine			1.2		1.2		0	28%	28%	0.14	TRUE	TRUE	Duplicate, not modeled	TRUE	PanDDA run, DMSO background map: Modeled [1, 12]: TRUE
CC1CCCC(O)(CNc2ncnc3[nH]ccc23)C1 (stereo not drawn) [AVI-4307]	0.17			1		Adenosine			1.0		1.0		0	34%	34%						PanDDA run, DMSO background map: 1-BDC ([1]; event 1): 0.26; Hit (PanDDA run, overall) ([1]; P43 crystals): TRUE; Hit (PanDDA run, DMSO background map) [1]: TRUE; 1-BDC (PanDDA run, DMSO background map) ([1]; event 1): 0.17
OC1(CNc2ncnc3[nH]ccc23)CCC(F)(F)CC1 [AVI-4308]	0.15			1		Adenosine			1.2		1.2		0	30%	30%						PanDDA run, DMSO background map: 1-BDC ([1]; event 1): 0.16; Hit (PanDDA run, overall) ([1]; P43 crystals): TRUE; Hit (PanDDA run, DMSO background map) [1]: TRUE; 1-BDC (PanDDA run, DMSO background map) ([1]; event 1): 0.15
